Where “and” joins values, the source holds several entries; their conditions need not be identical. Equal values may be shown once. Where a name gives a salt, the structure may show the parent alone. Read-outs that look alike come from different tables or passages of the source.
Assays:
plasma protein [1] = assay: Plasma protein binding; conditions: for Free plasma concentration (fraction): as fraction; for Free plasma concentration (fraction) / Free plasma concentration: from plasma protein binding
[2] = cited from earlier work
D2 receptors = assay: [11C]-Raclopride PET: elevation of synaptic dopamine
Method: Two female rhesus macaques (weight, 8.4 ± 0.2 kg; age, 16.6 ± 0.5) were scanned with [^11C]-Raclopride a total of 8 times, each under 4 scanning conditions per test agent. All scans were performed with [^11C]-Raclopride (tracer mass limited to 0.25 μg/kg) administered as an intravenous (i.v.) bolus + constant infusion (3 min bolus +132 min infusion; Kbol = 60 min; injected dose 5.8 ± 1.0 mCi). Scan data collection began simultaneously with tracer injection using the Siemens FOCUS 220 PET scanner. The scan data was acquired for 135 min and binned into sinograms with the following frame timing: 6 × 30 s; 3 × 1 min; 2 × 2 min; and 25 × 5 min. Prior to each tracer injection, a transmission scan was performed with an external gamma source for attenuation correction.
Experiment day 1 consisted of an initial [^11C]-Raclopride injection with MPH given i.v. at 45 min post-start of tracer administration under tracer steady-state conditions (displacement experiment). A second [^11C]-Raclopride scan was initiated ~ 2.5–3.5 h after the start of scan 1. Experiment day 2 consisted of a MPH pre-block initiated ~ 30 min prior to the first scan. A second scan was again initiated ~ 2.5–3.5 h after the start of scan 1. This same 2-day scanning paradigm was completed for both subjects and repeated using DAS in place of MPH. The test agent doses used were 0.2 mg/kg for DAS and 0.5 mg/kg for MPH. A minimum of 2-week recovery time was allowed between scans with the same subject.
Dynamic scan data were reconstructed with a filtered back-projection algorithm with corrections for attenuation, normalization, scatter, and randoms. ROIs were manually delineated on a single representative anatomical rhesus monkey magnetic resonance image (MRI) registered to a template image. Regions used in this study were caudate and putamen with the cerebellum as the reference region. Registration parameters were obtained to apply the ROIs to individual PET scans, and regional TACs were generated for the ROIs. Apparent binding potential (BPND) curves (target-to-cerebellum ratio - 1) were calculated for putamen and caudate by pooling the data from the 4 injections for each animal/drug combination. The following models were used to describe the apparent BPND curves. Model 1 is based on a gamma function where the occupancy increases, reaches a maximum, and then decreases, and both phases can be measured in the study. Model 2 has only increasing occupancy with time, approaching an asymptotic value. • Model 1: Four-parameter model (gamma function):
The change of BPND over time is modeled using a gamma function. BPNDt=BP01−At−t0^αexp−βt−t0t≥t0
The model can be reformulated as follows: BPNDt=BP01−Occ^maxt−t0/tmax−t0^αexpα1−t−t0/tmax−t0t≥t0α≡−ln2/1−τ+lnττ≡t1/2,R−t0/tmax−t0τ<1ort1/2,F−t0/tmax−t0τ>1 where t0 is the known time of drug administration and BP0 is the apparent BPND at time t0. The maximum occupancy, Occ^max, is obtained at time, tmax. The occupancy rises to 50% of Occ^max at the time, t1/2,R (< tmax), and falls to 50% of Occ^max at time, t1/2,F (> tmax). The 4 parameters of this model are BP0, Occ^max, tmax, and t1/2,R (or t1/2,F). • Model 2: Three-parameter model: BPNDt=BP01−Occ^max1−exp−βt−t0,β=ln2/t1/2,R−t0t≥t0
The parameters of this model are BP0, Occ^max, and t1/2,R.

[3] = Plasma levels of DAS or MPH during the displacement studies; type: in vivo, rhesus macaques (Macaca mulatta); conditions: for Average plasma (infusion period): individual animals A, B
Method: Venous blood samples (1 ml) were collected during the respective bolus and 4-step infusion displacement studies to measure the plasma levels of either DAS or MPH. Blood samples were collected in K3 EDTA vials, processed for plasma, frozen, and stored at − 20 °C until required for HPLC analysis of either DAS or MPH levels.

plasma protein [4] = conditions: cited from earlier work
[5] = Tolerability and vital signs after i.v. administration; type: in vivo, rhesus macaques; conditions: for Changes in heart rate, respiratory rate, blood pressure, oxygen saturation and temperature compared with baseline: after i.v. administration, data not shown; for Tolerability of i.v. administration: all doses examined
Method: PET experiments within an animal were spaced at least 2 weeks apart to allow recovery from anesthesia. Animals were fasted for 18–24 h prior to each PET scan experiment. At 2–2.5 h before radiotracer injection, the animal was anesthetized with ketamine (10–15 mg/kg) and glycopyrrolate 0.01 mg/kg i.m., transferred to the PET camera, and intubated with an endotracheal tube for continued anesthesia with 2.0–2.5% isoflurane administered through a rebreathing circuit. An intravenous line was placed and used for injection of radiotracer and administration of the drug. A heated water blanket was used to maintain normal body temperature (37 °C). Vital signs, including heart rate, blood pressure, respiration rate, oxygen saturation, and body temperature, were monitored approximately every 1 to 15 min during the study (data not shown).
Animals tolerated i.v. administration of DAS or MPH at all doses examined.

DAT = conditions: cited from earlier work
[6] = Extrapolated permeability and half-time to reach brain equilibrium (equation of Liu et al.)
Text: While lipid solubility and protein binding influences brain penetration, it appears that it is the combination of these two properties that influences the rate of brain penetration of a drug (Liu et al [2005]). […] The half-time to reach brain equilibrium (t1/2 equil) can be estimated by the following equation:
t1/2 equil = Vbln2/(PS.fu,brain)
where Vb is brain volume, PS is the permeability surface area product, P is the permeability rate, S is the surface area and fu is the unbound (free) drug brain concentration.
For comparative purposes between MPH and DAS, we can assume Vb and surface area are the same for both drugs, and the above equation becomes: t1/2equil∝1/P.fu,brain
As mentioned above, plasma protein binding of DAS and MPH are ~ 0.97 (or ~ 97%) and ~ 0.14 (or 14%) respectively, and the free plasma concentration of DAS is 0.03 and for MPH, it is 0.86. Since free drug plasma concentration is equal to free drug brain concentration, we can apply the free drug plasma concentration values of DAS and MPH together with the extrapolated permeability for DAS (12P) and MPH (P) to approximate t1/2 equil for both drugs, i.e.,

[7] = MPH 0.5 mg/kg i.v., model 1 fit
[8] = DAS 0.2 mg/kg i.v., model 2 fit

Q: Which results are given for COC(=O)C(c1ccccc1)C1CCCCN1 (racemic) [MPH, (±)-Methyl α-Phenyl-α-(2-piperidyl)acetate hydrochloride, reference compound]?
A: Free plasma concentration higher than that of DAS (plasma protein [1]; MPH relative to DAS): ~30 fold; Free plasma concentration (fraction) (plasma protein [1]): 0.86; Free plasma concentration (plasma protein [1]): 86%; Time to peak (oral absorption) ([2]; oral, ref Koblan et al. [2016]): 2 to 3 h; Maximum reduction in [11C]-raclopride binding (Occmax) in caudate and putamen (D2 receptors; [7]): 27%; Time for half-maximal displacement (t1/2,R) of [11C]-raclopride (D2 receptors; [7]): 0.383 h; Time for half-maximal displacement of [11C]-raclopride shorter than for DAS (D2 receptors; MPH 0.5 mg/kg relative to DAS 0.2 mg/kg): 4 fold; Cmax, Mean ± SD ([3]; MPH 0.1 mg/kg i.v. 3 min bolus, group mean): 169.2 ± 28.4 ng/mL; Cmax ([3]; MPH 0.1 mg/kg i.v. 3 min bolus, individual animals A-D): 137 ng/mL and 177 ng/mL and 117 ng/mL; Cmax ([3]; MPH 0.5 mg/kg i.v. 3 min bolus, individual animals A-D): 823 ng/mL and 609 ng/mL and 729 ng/mL; Average plasma (infusion period) ([3]; MPH 4.3 mg, bolus plus 4-step infusion over 40 min): 111.9 ng/mL and 91.52 ng/mL; Cmax ([3]; rhesus monkey, plasma, iv, 0.1 mg/kg, MPH 0.1 mg/kg i.v. 3 min bolus, group mean, read-out: Cmax, Mean ± SD): 169 ± 28.4 ng/mL; Cmax ([3]; rhesus monkey, plasma, iv, 0.5 mg/kg, MPH 0.5 mg/kg i.v. 3 min bolus, group mean, read-out: Cmax, Mean ± SD): 823 ± 111 ng/mL; Cmax ([3]; rhesus monkey, plasma, iv, 0.5 mg/kg, MPH 0.5 mg/kg i.v. 3 min bolus, individual animals A-D, read-out: Cmax): 1130 ng/mL; Plasma protein binding (plasma protein [4]; ref Faraj et al. [1974]): < 14%; Changes in heart rate, respiratory rate, blood pressure, oxygen saturation and temperature compared with baseline [5]: No changes outside physiologically accepted limits; Tolerability of i.v. administration [5]: tolerated; DAT occupancy OC50 (DAT; ref Spencer et al. [2006]): 6 ng/mL; Faster than DAS in reaching brain equilibrium ([6]; MPH relative to DAS, from t1/2equil): > 2 fold

Q: With N[C@@H]1CC[C@@H](c2ccc(Cl)c(Cl)c2)c2ccccc21 [DAS, (1R,4S)-4-(3,4-dichlorophenyl)-1,2,3,4-tetra-hydronaphthalen-1-amine] as the molecule, how does the “Free plasma concentration (fraction)” value (plasma protein [1]) read?
A: 0.03

Q: And the Free plasma concentration (plasma protein [1])?
A: 3%

Q: And the “t1/2 (elimination)” value ([2]; human, in vivo, po)?
A: 47 to 77 h

Q: And the tmax ([2]; oral administration in humans)?
A: 10 to 12 h

Q: What about the “Maximum reduction in [11C]-raclopride binding (Occmax) in caudate and putamen” value (D2 receptors; [8]) of the same molecule?
A: 29%

Q: What about the “Time for half-maximal displacement (t1/2,R) of [11C]-raclopride” value (D2 receptors; [8]) of the same molecule?
A: 1.47 h

Q: What about the “Time to 50% maximum displacement of [11C]-Raclopride / elevation of synaptic DA slower than MPH” value (D2 receptors; DAS relative to MPH) of the same molecule?
A: ~ 4 fold and 4 fold

Q: What about the Cmax ([3]; DAS 0.1 mg/kg i.v. 3 min bolus, individual animals A-D) of the same molecule?
A: 87.9 ng/mL and 25.9 ng/mL and 102 ng/mL and 54.6 ng/mL

Q: What about the Cmax ([3]; DAS 0.2 mg/kg i.v. 3 min bolus, individual animals A-D) of the same molecule?
A: 213 ng/mL and 123 ng/mL

Q: What about the “Average plasma (infusion period)” value ([3]; DAS 6.0 mg, bolus plus 4-step infusion over 40 min) of the same molecule?
A: 34.86 ng/mL and 32.38 ng/mL

Q: And the “Average plasma (infusion period), Mean” value ([3]; DAS 6.0 mg, bolus plus 4-step infusion over 40 min, mean of two animals)?
A: 33.62 ng/mL

Q: What about the Cmax ([3]; rhesus monkey, plasma, iv, 0.1 mg/kg, DAS 0.1 mg/kg i.v. 3 min bolus, group mean, read-out: Cmax, Mean ± SD) of the same molecule?
A: 71.9 ± 23.4 ng/mL

Q: What about the Cmax ([3]; rhesus monkey, plasma, iv, 0.2 mg/kg, DAS 0.2 mg/kg i.v. 3 min bolus, group mean, read-out: Cmax, Mean ± SD) of the same molecule?
A: 175 ± 26.9 ng/mL

Q: And the Cmax ([3]; rhesus monkey, plasma, iv, 0.2 mg/kg, DAS 0.2 mg/kg i.v. 3 min bolus, individual animals A-D, read-out: Cmax)?
A: 190 ng/mL

Q: And the Plasma protein binding (plasma protein [4]; Data-on-file, ref Sunovion report 360–455)?
A: ~ 97%

Q: What about the “Plasma protein binding (fraction)” value (plasma protein [4]; as fraction, Sunovion report 360–455 (DAS)) of the same molecule?
A: ~ 0.97

Q: What about the “Changes in heart rate, respiratory rate, blood pressure, oxygen saturation and temperature compared with baseline” value [5] of the same molecule?
A: No changes outside physiologically accepted limits

Q: What about the “Tolerability of i.v. administration” value [5] of the same molecule?
A: tolerated

Q: And the “Reported human DAT RO50” value (DAT; human, ref DeLorenzo et al. [2011], Hopkins et al. [2017])?
A: 4.5 to 6 ng/mL

Q: And the “DAT occupancy OC50” value (DAT; ref DeLorenzo et al. [2011])?
A: 4 ng/mL

Q: What about the “t1/2equil (half-time to reach brain equilibrium), proportional to” value ([6]; 1/(P.fu,brain) with extrapolated permeability (DAS 12P, MPH P) and free plasma fraction) of the same molecule?
A: 2.77 P

From PMC7651685 (Psychopharmacology, 2020)
